Where two headings read alike, the source gives them in different places.
How the values were obtained:
[1] = system: WFA-induced PD-L1 upregulation in NSCLC cells; assay: Pharmacologic inhibitors added to WFA, PD-L1 by flow cytometry; assay type: cell-based, mouse (LLC), human (H1650, A549)
[2] = system: WFA-mediated PD-L1 and ecto-CRT increase in NSCLC cell lines; assay: ROS scavenger added to WFA, PD-L1 and ecto-CRT, NSCLC; assay type: cell-based, mouse (LLC), human (H1650, A549); details: 24 h; for effect on WFA-mediated PD-L1 increase: WFA + 5 mM scavenger, flow cytometry and qRT-PCR (NAC), flow cytometry (GSH)
Description: NSCLC cell lines were treated with WFA (0.6 μM in LLC, H1650 cells, 4 μM in A549 cells), or a combination of WFA+5 mM NAC for 24 h. (FIGS. 4A, 4D, 4G) The change in ROS levels were measured in LLC (FIG. 4A), H1650 (FIG. 4D), and A549 (FIG. G). (FIGS. 4B, 4E, 4H) by flow cytometry. The change in PD-L1 levels was measured in LLC (FIG. 4B), H1650 (FIG. 4E), and A549 (FIG. 4H) cell lines using flow cytometry and qRT-PCR. (FIG. 4C, 4F, 4I) Ecto-CRT levels were measured in LLC (FIG. 4C), H1650 (FIG. 4F), and A549 (FIG. 41) by flow cytometry. Means of two independent experiments ±SEM are shown, except for the PCR experiments that were repeated twice and for which one representative experiment is shown. Statistical significance was calculated using one-way ANOVA and a Fisher LSD post hoc test where * is p<0.05, ** is p<0.01,*** is p<0.001, and **** is p<0.0001.
All cells were treated with 0.6 μM WFA except A549, 4t1 and MDA-MB-231 cells which were treated with 4 μM, 1 μM, 2 μM WFA, respectively. […] PCR experiments were repeated twice, and one representative experiment is shown as mean±SEM of 3 technical replicates. Flow cytometry experiments were performed twice and the mean±SEM of two representative experiments is shown. Treatments were compared to the control using one-way ANOVA and Fisher LSD post hoc test. * p<0.05, ** p<0.01, *** p<0.001, **** p<0.0001.
To test our hypothesis, we treated NSCLC cell lines with WFA, NAC, or a combination of both.

[3] = system: ROS levels in NSCLC cell lines; assay: ROS levels with ROS indicator CM-H2DCFDA; assay type: cell-based, mouse (LLC), human (H1650; details: 24 h; WFA 0.6 μM (LLC, H1650), 4 μM (A549); NAC 5 mM
[4] = system: PD-L1 upregulation in MC-38, HCT-116, 4T-1, and MDA-MB-231 cell lines; assay: PD-L1 with WFA and NAC in colorectal and breast cancer cell lines; assay type: cell-based, mouse (MC-38, 4T1), human (HCT-116; details: 5 mM NAC; MC-38, HCT-116, 4T-1, MDA-MB-231

Compound: Brusatol
- effect on WFA-induced PD-L1 upregulation [1]: completely abrogated

Compound: O=[N+]([O-])c1ccc2c(c1)S(=O)(=O)C=C2 [STATTIC]
- effect on WFA-induced PD-L1 upregulation ([1]; WFA + inhibitor, 24 h, STATTIC: LLC, H1650, PX-478: LLC, brusatol: LLC, H1650, A549): neither STATTIC nor PX-478 were able to reverse

Compound: N[C@@H](CCC(=O)N[C@@H](CS)C(=O)NCC(=O)O)C(=O)O [Glutathione, L-Glutathione]
- effect on WFA-mediated PD-L1 increase [2]: abrogated

Compound: CC(=O)N[C@@H](CS)C(=O)O [NAC, N-acetyl cysteine, reference compound]
- ROS levels [3]: reduced
- effect on WFA-mediated PD-L1 upregulation [4]: completely reversed
- effect on WFA-induced ecto-CRT expression ([2]; WFA + 5 mM NAC): completely reversed
- effect on WFA-mediated PD-L1 increase [2]: completely reversed

From patent US20240293430A1, “WITHAFERIN A AND IMMUNE CHECKPOINT BLOCKER COMBINATION THERAPIES” (University of South Florida, priority 2023, published 2024)
